Data from ChEMBL document CHEMBL4480380, “Identification and biological evaluation of novel benzothiazole derivatives bearing a pyridine-semicarbazone moiety as apoptosis inducers via activation of procaspase-3 to caspase-3” (Medchemcomm, 2019).
Each block holds one compound with its values, some of them ahead of it. Active and inactive are the calls of the source. The calls are words filed in the database; no cut-off is given here.

Key:
U-937 [1] = experiment: Antiproliferative activity against human procaspase-3 over-expressing U937 cells after 24 hrs by CCK-8 assay; format: functional, cell-based; conditions: U-937, 24 h
[2] = Selectivity ratio of IC50 for human MCF7 cells to IC50 for human procaspase-3 over-expressing U937 cells; format: functional
U-937 [3] = experiment: Induction of apoptosis in human U937 cells assessed as caspase-3 activity at 30 uM using Ac-DEVD-AFC as substrate preincubated for 16 hrs followed by substrate addition and measured after 60 mins by fluorescence assay (reference value: 7+/- 1%); format: functional
MCF7 = experiment: Antiproliferative activity against human MCF7 cells after 24 hrs by CCK-8 assay; format: functional, cell-based; conditions: MCF7, 24 h
U-937 [4] = experiment: Induction of apoptosis in human U937 cells assessed as early apoptotic cells at 6.6 uM after 24 hrs by Annexin V-FITC/propidium iodide staining-based flow cytometric analysis (reference value: 4.88%); format: functional
Danio rerio [5] = organism: Danio rerio; experiment: Induction of apoptosis in zebrafish AB embryos assessed as accumulation of dying cells in cranial neural crest at 40 to 60 uM after 24 hrs post fertilization by acridine orange staining-based fluorescence microscopic analysis; format: functional, organism-based
U-937 [6] = experiment: Induction of apoptosis in human U937 cells assessed as late apoptotic cells at 3.3 uM after 24 hrs by Annexin V-FITC/propidium iodide staining-based flow cytometric analysis (reference value: 3.27%); format: functional
U-937 [7] = experiment: Induction of apoptosis in human U937 cells assessed as late apoptotic cells at 6.6 uM after 48 hrs by Annexin V-FITC/propidium iodide staining-based flow cytometric analysis (reference value: 3.89%); format: functional
Danio rerio [8] = organism: Danio rerio; experiment: Induction of apoptosis in zebrafish AB embryos assessed as accumulation of dying cells in head at 40 to 60 uM after 24 hrs post fertilization by acridine orange staining-based fluorescence microscopic analysis; format: functional, organism-based
[9] = Half life in rat liver microsomes in presence of NADPH by LC-MS analysis; format: ADME, Microsome
U-937 [10] = experiment: Induction of apoptosis in human U937 cells assessed as early apoptotic cells at 6.6 uM after 48 hrs by Annexin V-FITC/propidium iodide staining-based flow cytometric analysis (reference value: 6.16%); format: functional
[11] = Toxicity in zebrafish AB embryos assessed as induction of mortality at 40 uM after 72 hrs post fertilization by stereo microscopic analysis; design: species or system Danio rerio; conditions: in vivo
[12] = Toxicity in zebrafish AB embryos at 5 to 20 uM measured at 24 to 72 hrs post fertilization by stereo microscopic analysis; design: species or system Danio rerio; conditions: in vivo
[13] = Toxicity in zebrafish AB embryos at 40 uM after 48 hrs post fertilization by stereo microscopic analysis; design: species or system Danio rerio; conditions: in vivo
[14] = Half life in human liver microsomes in presence of NADPH by LC-MS analysis; format: ADME, Microsome
[15] = Half life in mouse liver microsomes in presence of NADPH by LC-MS analysis; format: ADME, Microsome
[16] = Intrinsic clearance in rat liver microsomes in presence of NADPH by LC-MS analysis; format: ADME, Microsome; conditions: read-out: CLH
Danio rerio [17] = organism: Danio rerio; experiment: Induction of apoptosis in zebrafish AB embryos assessed as increase in bax mRNA expression at 40 to 60 uM after 24 hrs post fertilization by RT-PCR analysis; format: functional, organism-based
U-937 [18] = experiment: Induction of apoptosis in human U937 cells assessed as early apoptotic cells at 3.3 uM after 48 hrs by Annexin V-FITC/propidium iodide staining-based flow cytometric analysis (reference value: 6.16%); format: functional
[19] = Intrinsic clearance in human liver microsomes in presence of NADPH by LC-MS analysis; format: ADME, Microsome; conditions: read-out: CLH
U-937 [20] = experiment: Induction of apoptosis in human U937 cells assessed as late apoptotic cells at 3.3 uM after 48 hrs by Annexin V-FITC/propidium iodide staining-based flow cytometric analysis (reference value: 3.89%); format: functional
U-937 [21] = experiment: Induction of apoptosis in human U937 cells assessed as late apoptotic cells at 6.6 uM after 24 hrs by Annexin V-FITC/propidium iodide staining-based flow cytometric analysis (reference value: 3.27%); format: functional
U-937 [22] = experiment: Induction of apoptosis in human U937 cells assessed as early apoptotic cells at 3.3 uM after 24 hrs by Annexin V-FITC/propidium iodide staining-based flow cytometric analysis (reference value: 4.88%); format: functional
[23] = Intrinsic clearance in mouse liver microsomes in presence of NADPH by LC-MS analysis; format: ADME, Microsome; conditions: read-out: CLH
Caspase-3 (Homo sapiens) = biological target: T1, Caspase-3 (Homo sapiens) (UniProt P42574); experiment: Activation of procaspase-3 (unknown origin) at 10 uM using Ac-DEVD-AFC as substrate preincubated for 4 hrs followed by substrate addition and measured after 5 mins by fluorescence assay relative to control
T1 sequence (whole entry): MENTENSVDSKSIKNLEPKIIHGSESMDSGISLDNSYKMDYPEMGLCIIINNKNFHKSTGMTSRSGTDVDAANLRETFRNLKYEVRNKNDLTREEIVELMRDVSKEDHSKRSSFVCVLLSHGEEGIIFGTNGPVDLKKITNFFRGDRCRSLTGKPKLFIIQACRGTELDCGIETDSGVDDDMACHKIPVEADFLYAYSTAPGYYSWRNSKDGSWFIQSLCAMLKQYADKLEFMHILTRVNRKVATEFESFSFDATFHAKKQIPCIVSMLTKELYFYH

IC50 (U-937 [1]): 9.1 µM
IC50 (MCF7): > 40 µM
Structure (SMILES): CCN(CC)Cc1ccc2nc(NC(=O)NN=C(c3ccccn3)c3ccccn3)sc2c1
Ratio IC50 [2]: 4.3
Activity (U-937 [3]): 119%

IC50 (U-937 [1]): 7.8 µM
IC50 (MCF7): > 40 µM
Structure (SMILES): CN(C)Cc1ccc2nc(NC(=O)NN=C(c3ccccn3)c3ccccn3)sc2c1
Ratio IC50 [2]: 5.1
Activity (U-937 [3]): 104%

IC50 (U-937 [1]): > 40 µM
IC50 (MCF7): > 40 µM
Structure (SMILES): C/C(=N\NC(=O)Nc1ccc(CN2CCC(C)CC2)cc1)c1ccccn1

IC50 (U-937 [1]): 23.2 µM
IC50 (MCF7): > 40 µM
Structure (SMILES): CN(C)Cc1ccc2nc(NC(=O)N/N=C/c3ccccn3)sc2c1
Ratio IC50 [2]: 1.6

IC50 (U-937 [1]): > 25 µM
IC50 (MCF7): 13.3 µM
Structure (SMILES): CC1CCN(Cc2ccc(NC(=O)NN=C(c3ccccc3)c3ccccc3)cc2)CC1
Ratio IC50 [2]: <1
Activity (U-937 [3]): 58%

IC50 (U-937 [1]): > 40 µM
IC50 (MCF7): 11.8 µM
Structure (SMILES): C/C(=N\NC(=O)Nc1nc2ccc(CN3CCC(C)CC3)cc2s1)c1cnccn1
Ratio IC50 [2]: <1

IC50 (U-937 [1]): 21.5 µM
IC50 (MCF7): > 40 µM
Structure (SMILES): CC1CCN(Cc2ccc3nc(NC(=O)N/N=C/c4ccccn4)sc3c2)CC1
Ratio IC50 [2]: 1.6

More lines, now with the values behind:

Structure (SMILES): C/C(=N\NC(=O)Nc1nc2ccc(CN3CCC(C)CC3)cc2s1)c1ccccc1
IC50 (U-937 [1]): > 40 µM
IC50 (MCF7): > 40 µM

Structure (SMILES): CC1CCN(Cc2ccc(NC(=O)NN=C(c3ccccn3)c3ccccn3)cc2)CC1
IC50 (U-937 [1]): > 40 µM
IC50 (MCF7): > 40 µM

Structure (SMILES): C/C(=N\NC(=O)Nc1nc2ccc(CN(C)C)cc2s1)c1cnccn1
IC50 (U-937 [1]): > 40 µM
IC50 (MCF7): > 40 µM

Structure (SMILES): CCN(CC)Cc1ccc2nc(NC(=O)N/N=C(\C)c3ccc(F)cc3)sc2c1
IC50 (U-937 [1]): > 40 µM
Ratio IC50 [2]: <1
Activity (U-937 [3]): 40%
IC50 (MCF7): 12.3 µM

Structure (SMILES): CCN(CC)Cc1ccc(NC(=O)N/N=C(\C)c2ccccn2)cc1
IC50 (U-937 [1]): > 40 µM
IC50 (MCF7): > 40 µM

Structure (SMILES): CC1CCN(Cc2ccc3nc(NC(=O)NN=C(c4ccccn4)c4ccccn4)sc3c2)CC1
Activity (U-937 [4]): 19.27%
Activity (Danio rerio [5]): Active
Activity (U-937 [6]): 6.75%
Activity (U-937 [7]): 17.66%
Activity (Danio rerio [8]): Active
half-life [9]: 1.23 h
Activity (U-937 [10]): 26.89%
IC50 (U-937 [1]): 6.6 µM
Activity [11]: Toxic
Activity [12]: Non-Toxic
Activity [13]: Toxic
half-life [14]: 1.32 h
half-life [15]: 0.279 h
CLint scaled [16]: 33.6 mL/min/kg
Activity (Danio rerio [17]): Active
Activity (U-937 [18]): 20.55%
CLint scaled [19]: 22 mL/min/kg
Activity (U-937 [20]): 9.86%
Activity (U-937 [21]): 8.5%
Activity (U-937 [22]): 15.85%
CLint scaled [23]: 326 mL/min/kg
Ratio IC50 [2]: 6
Activity (U-937 [3]): 114%
IC50 (MCF7): > 40 µM
Activity (Caspase-3 (Homo sapiens)): 92.1%

Structure (SMILES): CCN(CC)Cc1ccc2nc(NC(=O)N/N=C(\C)c3ccccn3)sc2c1
IC50 (U-937 [1]): 15.6 µM
Ratio IC50 [2]: 2.6
IC50 (MCF7): > 40 µM
